What was measured:
[1] = test system: Mouse cortical cell cultures; test: NMDA neurotoxicity in cortical cell cultures (LDH release); format: cell-based; conditions: for neuroprotective effect against NMDA neurotoxicity relative to BAS: comparison in words
Method: (§1) Primary cortical cell cultures from embryonic mice were prepared and used to examine neuroprotective action of compounds. Mouse cortical cell culture system has been extensively used to study mechanisms and pharmacological intervention of neuronal death in neurological diseases. In brief, mouse cerebral cortices were removed from brains of the 15 day-old-fetal mice, in accordance with a protocol approved by our institutional animal care committee. […] After 7 days in vitro (DIV 7), cultures were shifted into a growth medium identical to the plating medium but lacking fetal serum. At DIV 7 - 9, […] cytosine arabinofuranoside was included to halt overgrowth of glia. Mixed cultures of neurons and glia were then fed twice a week.

[2] = test system: Mouse cortical cell cultures; test: Fe^2+-induced free radical neurotoxicity in cortical cell cultures (LDH release); format: cell-based; conditions: for effect on Fe^2+-induced free radical neurotoxicity: 10 µM compound; for effect on Fe^2+-induced free radical neurotoxicity / effect on Fe^2+-induced neuronal death: continuous 50 µM Fe^2+; for effect on Fe^2+-induced neuronal death: 1 µM compound; for protection against free radical neurotoxicity relative to NBAS / prevention of free radical neurotoxicity relative to BAS: comparison in words
Method: as §1

[3] = DPPH anti-oxidant assay (decrease in DPPH absorption at 517 nm); format: biochemical; conditions: mean ± SEM, n = 3, DPPH alone 1.2
Method: To examine anti-oxidant effect, DPPH (2,2-diphenyl-1-picryl-hydrazyl radical), a stable free radical, was dissolved in ethanol to make a 100 µM solution. A compound was reacted with DPPH or ethanol. After incubation for 30 min, relative decrease in DPPH absorption at 517 nm was measured by a spectrophotometer.

[4] = test system: Mouse cortical cell cultures; test: Zn^2+ neurotoxicity in cortical cell cultures (LDH release); format: cell-based; conditions: for neuroprotective effect against Zn^2+ neurotoxicity relative to BAS: comparison in words
Method: as §1

[5] = 300 µM compound, 300 µM NMDA for 10 min, in words
[6] = 100 µM compound reacted with 100 uM DPPH in ethanol for 30 min
[7] = 10 µM compound reacted with 100 uM DPPH in ethanol for 30 min
[8] = 30 µM compound reacted with 100 uM DPPH in ethanol for 30 min
[9] = 300 µM compound reacted with 100 uM DPPH in ethanol for 30 min

## CCOC(=O)c1cc(NCc2ccc([N+](=O)[O-])cc2)ccc1O [NAHE, 5-(4-nitrobenzyl)amino-2-hydroxy ethylbenzoate]
[1]; [5]
  effect on NMDA neurotoxicity: attenuated
[2]; in words
  effect on Fe^2+-induced free radical neurotoxicity: blocked

## O=C(O)c1cc(NCCc2ccc([N+](=O)[O-])cc2)ccc1O [NPAA, 5-[2-(4-nitrophenyl)-ethyl]aminosalicylic acid]
[1]; [5]
  effect on NMDA neurotoxicity: slightly reduced
[2]; in words
  effect on Fe^2+-induced neuronal death: complete blockade
[2]
  protection against free radical neurotoxicity relative to NBAS: more effective than NBAS
[3]; [6]
  A517nm: 0.09 ± 0.01

## Cc1c(C)c2c(c(C)c1O)CCC(C)(C(=O)O)O2 (centres unmarked) [Trolox, trolox]
[3]; 3 µM compound reacted with 100 uM DPPH in ethanol for 30 min
  A517nm: 1.08±0.1
[3]; [7]
  A517nm: 0.89±0.08
[3]; [8]
  A517nm: 0.39±0.06
[3]; [6]
  A517nm: 0.05±0.01
[3]; [9]
  A517nm: 0.03±0.01

## O=C(O)c1cc(NS(=O)(=O)c2ccc([N+](=O)[O-])cc2)ccc1O [NBSAA, 5-(4-nitrobenzenesulfonyl)aminosalicylic acid]
[1]; [5]
  effect on NMDA neurotoxicity: markedly reduced
[1]; 30 - 300 µM compound, 300 µM NMDA for 10 min, in words
  effect on NMDA neurotoxicity: attenuated NMDA neurotoxicity in a dose-dependent manner
[2]
  protection against free radical neurotoxicity relative to NBAS: weaker than NBAS
[3]; [6]
  A517nm: 0.15 ± 0.05

## O=C(Nc1ccc(O)c(C(=O)O)c1)c1ccc([N+](=O)[O-])cc1 [NBAA, 5-(4-nitrobenzoyl)aminosalicylic acid]
[1]; 30 µM compound, 300 µM NMDA for 10 min, in words
  effect on NMDA neurotoxicity: significantly attenuated
[1]; above 30 µM up to 300 µM, in words
  change of protective effect against NMDA with higher doses: not further increased
[2]
  protection against free radical neurotoxicity relative to NBAS: weaker than NBAS
[3]; [6]
  A517nm: 0.42 ± 0.22

## O=C(O)c1cc(NCc2c(F)c(F)c(F)c(F)c2F)ccc1O [PBAS, 5-(pentafluorobenzyl)aminosalicylic acid]
[1]; Mus musculus, 300 µM compound, 300 µM NMDA for 10 min, LDH 24 hr later, read-out: reduction of NMDA-induced neuronal death
  inhibition at 300 µM: ~65%

## O=C(O)c1cc(NCc2ccc([N+](=O)[O-])cc2)ccc1O [NBAS, 5-(4-nitrobenzyl)aminosalicylic acid]
[1]
  neuroprotective effect against NMDA neurotoxicity relative to BAS: did not reduce neuroprotective effects of BAS
[2]
  prevention of free radical neurotoxicity relative to BAS: more potent than BAS
[3]; [7]
  A517nm: 0.37±0.1
[3]; [8]
  A517nm: 0.04 ± 0.01
[3]; [6]
  A517nm: 0.04±0.00
[3]; [9]
  A517nm: 0.04±0.00
[4]
  neuroprotective effect against Zn^2+ neurotoxicity relative to BAS: did not reduce neuroprotective effects of BAS

## O=C(O)c1cc(NCCCc2ccc([N+](=O)[O-])cc2)ccc1O [NPPAA, 5-[3-(4-nitrophenyl)-n-propyl]aminosalicylic acid]
[1]; [5]
  effect on NMDA neurotoxicity: slightly reduced
[2]; in words
  effect on Fe^2+-induced neuronal death: complete blockade
[2]
  protection against free radical neurotoxicity relative to NBAS: more effective than NBAS
[3]; [6]
  A517nm: 0.09 ± 0.02

## O=C(O)c1cc(NCc2ccc(Cl)cc2)ccc1O [CBAS, 5-(4-chlorobenzyl)aminosalicylic acid]
[1]
  neuroprotective effect against NMDA neurotoxicity relative to BAS: did not reduce neuroprotective effects of BAS
[2]
  prevention of free radical neurotoxicity relative to BAS: more potent than BAS
[4]
  neuroprotective effect against Zn^2+ neurotoxicity relative to BAS: did not reduce neuroprotective effects of BAS

## Nc1ccc(O)c(C(=O)O)c1 [AS, 5-amino salicylic acid]
[1]; 10 - 300 µM compound, 300 µM NMDA for 10 min, in words
  effect on NMDA-induced neuronal death: did not attenuate
[2]; 10 - 100 µM compound, 24 hr-exposure to 50 µM Fe^2+, in words
  effect on free radical neurotoxicity following exposure to Fe^2+: dose-dependently prevented
[4]; 10 - 300 µM compound during and post Zn^2+ treatment, 300 µM Zn^2+ for 30 min, in words
  effect on neuronal death after exposure to Zn^2+: not reduced

## O=C(O)c1cc(NCc2ccc(C(F)(F)F)cc2)ccc1O [TBAS, 5-(4-trifluoromethylbenzyl)aminosalicylic acid]
[1]
  neuroprotective effect against NMDA neurotoxicity relative to BAS: did not reduce neuroprotective effects of BAS
[2]
  prevention of free radical neurotoxicity relative to BAS: more potent than BAS
[4]
  neuroprotective effect against Zn^2+ neurotoxicity relative to BAS: did not reduce neuroprotective effects of BAS

## CCOC(=O)c1cc(N(Cc2ccc([N+](=O)[O-])cc2)C(C)=O)ccc1O [NNAHE, 5-(4-nitrobenzyl)-N-acetylamino-2-hydroxy ethylbenzoate]
[1]; [5]
  effect on NMDA neurotoxicity: attenuated
[2]; in words
  effect on Fe^2+-induced free radical neurotoxicity: blocked

## CCOC(=O)c1cc(N(Cc2ccc([N+](=O)[O-])cc2)C(C)=O)ccc1OC(C)=O [NNAAE, 5-(4-nitrobenzyl)-N-acetylamino-2-acetoxy ethylbenzoate]
[1]; [5]
  effect on NMDA neurotoxicity: attenuated
[2]; in words
  effect on Fe^2+-induced free radical neurotoxicity: blocked

— EP1274675B1, “COMPOUNDS, COMPOSITIONS AND METHODS FOR PREVENTING NEURODEGENERATION IN ACUTE AND CHRONIC INJURIES IN THE CENTRAL NERVOUS SYSTEM” (Neurotech Co., Ltd., priority 2000, dated 2001)
